In patent EP3822283A1, “SEMAPHORIN 3A NEURODEGENERATION MODULATORS, COMPOSITIONS AND USES THEREOF” (Consejo Superior de Investigaciones Científicas (CSIC), priority 2019, dated 2021):

Molecular target: T1, Sema3A (Rattus norvegicus, UniProt Q63548)
T1 sequence (Q63548 21-772): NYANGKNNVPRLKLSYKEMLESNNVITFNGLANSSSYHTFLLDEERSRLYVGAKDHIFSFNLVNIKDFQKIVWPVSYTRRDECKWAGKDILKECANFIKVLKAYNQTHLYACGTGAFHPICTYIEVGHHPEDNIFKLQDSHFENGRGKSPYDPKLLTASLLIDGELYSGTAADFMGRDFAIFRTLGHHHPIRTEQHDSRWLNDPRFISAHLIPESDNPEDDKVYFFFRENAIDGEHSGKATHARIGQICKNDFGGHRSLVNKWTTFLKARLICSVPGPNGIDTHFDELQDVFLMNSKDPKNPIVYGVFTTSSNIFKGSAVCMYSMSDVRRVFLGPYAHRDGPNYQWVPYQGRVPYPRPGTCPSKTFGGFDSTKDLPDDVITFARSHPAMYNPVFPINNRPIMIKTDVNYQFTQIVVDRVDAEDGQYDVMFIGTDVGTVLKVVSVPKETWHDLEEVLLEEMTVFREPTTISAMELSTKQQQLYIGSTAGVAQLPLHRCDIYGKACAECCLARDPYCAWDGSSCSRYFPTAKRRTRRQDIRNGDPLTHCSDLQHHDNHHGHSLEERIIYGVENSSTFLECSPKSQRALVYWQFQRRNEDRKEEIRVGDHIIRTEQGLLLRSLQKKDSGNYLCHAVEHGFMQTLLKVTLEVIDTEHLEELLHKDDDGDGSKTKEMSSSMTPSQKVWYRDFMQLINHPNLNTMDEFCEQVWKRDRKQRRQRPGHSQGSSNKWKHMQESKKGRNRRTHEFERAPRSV
Protocol: To evaluate the potential of the Compound 2 to inhibit Sema3a in a relevant small animal model, a rat axotomy study was carried out. […] Adult male Sprague-Dawley rats (12-15 weeks old, 300 g) were anesthetized (50 mg/kg xylazine and 35 mg/kg ketamine), and their left optic nerves were exposed by lateral canthotomy. Briefly, the conjuctivae were incised lateral to the cornea, and the retractor bulbus muscles were separated. Through a small opening in the meninges (50-100 µm), the nerve fibers were completely transected at a distance of 2-3 mm from the globe. The procedure was performed without damage to the nerve vasculature and optic nerve blood supply and with minimal damage to the meninges by the use of a specially designed glass dissector with a 200- µm tip and a smooth blunt edge (Solomon et al., 1996, Journal of Neuroscience Methods, 70, 21-5). […] Clinical examination of the eyes was performed using a slit lamp, and the eyes were monitored for any signs of hyperemia, edema, dis- charge, fibrin, and other inflammatory parameters. […] Two independent and blinded researchers counted the number of labeled RGC in flat-mounted retinas by fluorescent microscopy. For each retina, 20 representative microscopic fields were evaluated: 10 fields from the peripheral area and 10 fields from the central area (each field covering an area of 0.069 mm2). […]

Question: Which “RGC survival compared to healthy rats” value (adult male Sprague-Dawley rats, optic nerve axotomy, single intravitreal dose 0.025 µg/eye immediately after surgery, 14 days after optic nerve surgery, 2 days after Di-Asp retrograde staining of RGC) does the source give for `CCN(CC)CCN(CC(=O)N(CCN1CCCC1)CC(=O)N(CCC1CCCN1C)CC(N)=O)C(=O)OCc1ccccc1` (centres unmarked) [Compound 2, 2-[2-(1-methylpyrrolidin-2-yl)ethyl]-5-(2-pyrrolidin-1-yl)ethyl-8-benzyloxycarbonyl-11,11-diethyl-3,6-dioxo-2,5,8,11-tetraazaundecancarboxamide] here?
Answer: The value was 30%.

Question: And the “prevention of RGC loss (neuroprotection)” value (rat optic nerve axotomy, single intravitreal dose 0.025 µg/eye in 4 µl PBS, labeled RGC counted in flat-mounted retinas)?
Answer: The value was “neuroprotective”.
